Source: patent publication US10987349B2, “Antitumor agent and bromodomain inhibitor” (FUJIFILM Corporation, priority 2016, dated 2021)

What was measured:
BRD2 BD2 = target: T1, BRD2 BD2 (Homo sapiens, UniProt P25440); assay: Binding assay, BRD2 BD2 to acetylated histone H4 Peptide-Biotin (EPIgeneous Binding Domain Kit B); settings: test compound at 300 nmol/L; for inhibition at 0.3 µM: read-out: Binding inhibition percentage BRD2 BD2
T1 construct: BRD2 BD2, BRD3 BD2 and BRD4 BD2 (Cisbio); purchased Cisbio
Procedure: (§1) Moreover, BRD2 BD2, BRD3 BD2 and BRD4 BD2 (Cisbio), Peptide-Biotin (AnaSpec), and EPIgeneous (registered trademark) Binding Domain Kit B (Cisbio) were used to carry out an assay. That is, per well, 4 μL of BRD2 BD2, BRD3 BD2 or BRD4 BD2, which was adjusted to 20 nmol/L with Diluent buffer; 4 μL of 250 nmol/L Peptide-Biotin; 2 μL of Dilution buffer (Cisbio) containing DMSO or a test compound that was serially diluted with DMSO; 5 μL of 25 nmol/L Streptavidin-XL665; 5 μL of Anti-Gst-Eu+^3+ Cryptate Conjugate 50-fold diluted with Detection Buffer were added to a 384-well plate (Corning).
(§2) The obtained mixture was left at rest at room temperature for 20 hours, and thereafter, the fluoresence intensity at 665 nm and 620 nm was measured using Envision plate reader (Perkin Elmer), so that the inhibition percentage (%) of the test compound against the binding of a bromodomain in a bromodomain-containing protein to Peptide-Biotin was calculated. Binding inhibition percentage (%)=[1−{(fluorescence intensity at 665 nm of test compound−added well)/(fluorescence intensity at 620 nm of test compound−added well)}/{(fluorescence intensity at 665 nm of DMSO−added well)/(fluorescence intensity at 665 nm of DMSO−added well)}]×100
(§3) Moreover, using Graphpad prism 5 (GraphPad software), 50% inhibitory concentration [IC50 (nmol/L)] was calculated according to a non-linear regression analysis (log (inhibitor) vs. response—Variable slope (four parameters)).
(§4) Regarding other test compounds, each compound was diluted with DMSO to a final concentration of 300 nmol/L by the same method as that described above, and the binding inhibition percentage (%) of each test compound at 300 nmol/L against the binding of bromodomain in a bromodomain-containing protein to acetylated histone was calculated.

BRD3 BD2 = target: T2, BRD3 BD2 (Homo sapiens, UniProt Q15059); assay: Binding assay, BRD3 BD2 to acetylated histone H4 Peptide-Biotin (EPIgeneous Binding Domain Kit B); settings: test compound at 300 nmol/L; for inhibition at 0.3 µM: read-out: Binding inhibition percentage BRD3 BD2
T2 construct: BRD2 BD2, BRD3 BD2 and BRD4 BD2 (Cisbio); purchased Cisbio
Procedure: as §1, §2, §3, §4

BRD3 BD1 = target: T3, BRD3 BD1 (Homo sapiens, UniProt Q15059); assay: Binding assay, BRD3 BD1 to acetylated histone H4 Peptide-Biotin (EPIgeneous Binding Domain Kit A); settings: test compound at 300 nmol/L; for inhibition at 0.3 µM: read-out: Binding inhibition percentage BRD3 BD1
T3 construct: BRD2 BD1, BRD3 BD1 and BRD4 BD1 (Cisbio); purchased Cisbio
Procedure: (§5) BRD2 BD1, BRD3 BD1 and BRD4 BD1 (Cisbio), [Lys(Ac)5/8/12/16]-Histone H4(1-25)-GSGSK (Biotin) (hereinafter referred to as “Peptide-Biotin,” AnaSpec), and EPIgeneous (registered trademark) Binding Domain Kit A (Cisbio) were used to carry out an assay. That is to say, per well, 4 μL of BRD2 BD1, BRD3 BD1 or BRD4 BD1, which was adjusted to 20 nmol/L with Diluent buffer; 4 μL of 25 nmol/L Peptide-Biotin; 2 μL of Dilution buffer (Cisbio) containing dimethyl sulfoxide (DMSO) or a test compound that was serially diluted with DMSO; 5 μL of 2.5 nmol/L Streptavidin-d2; and 5 μL of Anti-Gst-Eu+^3+ Cryptate Conjugate 50-fold diluted with Detection Buffer were added to a 384-well plate (Corning).
as §2, §3, §4

BRD4 BD2 = target: T4, BRD4 BD2 (Homo sapiens, UniProt O60885); assay: Binding assay, BRD4 BD2 to acetylated histone H4 Peptide-Biotin (EPIgeneous Binding Domain Kit B); settings: test compound at 300 nmol/L; for inhibition at 0.3 µM: read-out: Binding inhibition percentage BRD4 BD2
T4 construct: BRD2 BD2, BRD3 BD2 and BRD4 BD2 (Cisbio); purchased Cisbio
Procedure: as §1, §2, §3, §4

BRD4 BD1 = target: T5, BRD4 BD1 (Homo sapiens, UniProt O60885); assay: Binding assay, BRD4 BD1 to acetylated histone H4 Peptide-Biotin (EPIgeneous Binding Domain Kit A); settings: test compound at 300 nmol/L; for inhibition at 0.3 µM: read-out: Binding inhibition percentage BRD4 BD1
T5 construct: BRD2 BD1, BRD3 BD1 and BRD4 BD1 (Cisbio); purchased Cisbio
Procedure: as §5, §2, §3, §4

BRD2 BD1 = target: T6, BRD2 BD1 (Homo sapiens, UniProt P25440); assay: Binding assay, BRD2 BD1 to acetylated histone H4 Peptide-Biotin (EPIgeneous Binding Domain Kit A); settings: test compound at 300 nmol/L; for inhibition at 0.3 µM: read-out: Binding inhibition percentage BRD2 BD1
T6 construct: BRD2 BD1, BRD3 BD1 and BRD4 BD1 (Cisbio); purchased Cisbio
Procedure: as §5, §2, §3, §4

T2 sequence (Q15059 306-415 limits assumed): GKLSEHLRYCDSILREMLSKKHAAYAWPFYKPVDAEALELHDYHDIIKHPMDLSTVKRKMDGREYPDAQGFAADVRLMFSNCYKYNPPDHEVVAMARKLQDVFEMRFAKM
T1 sequence (P25440 344-453 limits assumed): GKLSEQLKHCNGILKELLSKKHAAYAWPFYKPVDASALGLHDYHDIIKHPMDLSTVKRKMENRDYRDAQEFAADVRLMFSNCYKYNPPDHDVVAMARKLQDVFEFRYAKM
T6 sequence (P25440 74-180 limits assumed): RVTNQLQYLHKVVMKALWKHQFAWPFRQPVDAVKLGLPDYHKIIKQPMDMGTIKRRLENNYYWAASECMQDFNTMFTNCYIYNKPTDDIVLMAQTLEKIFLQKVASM
T3 sequence (Q15059 34-140 limits assumed): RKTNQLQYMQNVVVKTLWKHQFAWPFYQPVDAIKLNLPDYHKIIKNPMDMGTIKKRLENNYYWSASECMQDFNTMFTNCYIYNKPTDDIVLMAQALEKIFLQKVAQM

Row | inhibition at 0.3 µM (BRD2 BD2) [%] | inhibition at 0.3 µM (BRD3 BD2) [%] | inhibition at 0.3 µM (BRD3 BD1) [%] | inhibition at 0.3 µM (BRD4 BD2) [%] | inhibition at 0.3 µM (BRD4 BD1) [%] | inhibition at 0.3 µM (BRD2 BD1) [%] | Binding inhibition percentage BRD2 BD2 (BRD2 BD2) [%] | Binding inhibition percentage BRD3 BD2 (BRD3 BD2) [%] | Binding inhibition percentage BRD3 BD1 (BRD3 BD1) [%] | Binding inhibition percentage BRD4 BD2 (BRD4 BD2) [%] | Binding inhibition percentage BRD4 BD1 (BRD4 BD1) [%] | Binding inhibition percentage BRD2 BD1 (BRD2 BD1) [%] | SMILES
1 | 89 | 92 | 94 | 88 | 94 | 87 |  |  |  |  |  |  | CCn1c(=O)cc(N2CCOCC2)c2cc(-n3c(-c4ccccc4)cn(CCO)c3=O)ccc21 [Example 262, 1-ethyl-6-(3-(2-hydroxyethyl)-2-oxo-5-phenyl-2,3-dihydro-1H-imidazol-1-yl)-4-(morpholin-4-yl)quinolin-2(1H)-one]
2 | 88 | 91 | 94 | 88 | 95 | 92 |  |  |  |  |  |  | CCCCn1cc(-c2ccccc2)n(-c2ccc3c(c2)c(N2CCOCC2)cc(=O)n3CC)c1=O [Example 264, 6-(3-butyl-2-oxo-5-phenyl-2,3-dihydro-1H-imidazol-1-yl)-1-ethyl-4-(morpholin-4-yl)quinolin-2(1H)-one]
3 | 89 | 92 | 95 | 87 | 94 | 91 |  |  |  |  |  |  | CCCn1cc(-c2ccccc2)n(-c2ccc3c(c2)c(N2CCOCC2)cc(=O)n3CC)c1=O [Example 265, 1-ethyl-4-(morpholin-4-yl)-6-(2-oxo-5-phenyl-3-propyl-2,3-dihydro-1H-imidazol-1-yl)quinolin-2(1H)-one]
4 | 90 | 91 | 94 | 88 | 93 | 91 |  |  |  |  |  |  | CCn1cc(-c2ccccc2)n(-c2ccc3c(c2)c(N2CCOCC2)cc(=O)n3CC)c1=O [Example 266, 1-ethyl-6-(3-ethyl-2-oxo-5-phenyl-2,3-dihydro-1H-imidazol-1-yl)-4-(morpholin-4-yl)quinolin-2(1H)-one]
5 | 87 | 90 | 53 | 87 | 68 | 32 |  |  |  |  |  |  | CCn1c(=O)cc(C2CC2)c2cc(-n3c(-c4ccc(C(F)(F)F)cc4)cn(C)c3=O)ccc21 [Example 267, 4-cyclopropyl-1-ethyl-6-(3-methyl-2-oxo-5-(4-(trifluoromethyl)phenyl)-2,3-dihydro-1H-imidazol-1-yl)quinolin-2(1H)-one]
6 | 86 | 92 | 62 | 87 | 73 | 48 |  |  |  |  |  |  | CCn1c(=O)cc(C2CC2)c2cc(-n3c(-c4ccc(C(F)(F)F)cc4)c[nH]c3=O)ccc21 [Example 268, 4-cyclopropyl-1-ethyl-6-(2-oxo-5-(4-(trifluoromethyl)phenyl)-2,3-dihydro-1H-imidazol-1-yl)quinolin-2(1H)-one]
7 | 85 | 92 | 58 | 87 | 71 | 36 |  |  |  |  |  |  | CCn1c(=O)cc(C2CC2)c2cc(-n3c(-c4ccc(Cl)cc4)cn(C)c3=O)ccc21 [Example 269, 6-(5-(4-chlorophenyl)-3-methyl-2-oxo-2,3-dihydro-1H-imidazol-1-yl)-4-cyclopropyl-1-ethylquinolin-2(1H)-one]
8 | 89 | 91 | 94 | 89 | 94 | 87 |  |  |  |  |  |  | CCn1c(=O)cc(N2CCOCC2)c2cc(-n3c(-c4ccc(C(F)(F)F)cc4)cn(C)c3=O)ccc21 [Example 270, 1-ethyl-6-(3-methyl-2-oxo-5-(4-(trifluoromethyl)phenyl)-2,3-dihydro-1H-imidazol-1-yl)-4-(morpholin-4-yl)quinolin-2(1H)-one]
9 | 88 | 92 | 72 | 88 | 77 | 60 |  |  |  |  |  |  | CCn1c(=O)cc(C2CC2)c2cc(-n3c(-c4ccc(Cl)cc4)c[nH]c3=O)ccc21 [Example 271, 6-(5-(4-chlorophenyl)-2-oxo-2,3-dihydro-1H-imidazol-1-yl)-4-cyclopropyl-1-ethylquinolin-2(1H)-one]
10 | 89 | 91 | 93 | 90 | 93 | 87 |  |  |  |  |  |  | CCn1c(=O)cc(N2CCOCC2)c2cc(-n3c(-c4ccc(C(F)(F)F)cc4)c[nH]c3=O)ccc21 [Example 272, 1-ethyl-6-(2-oxo-5-(4-(trifluoromethyl)phenyl)-2,3-dihydro-1H-imidazol-1-yl)-4-(morpholin-4-yl)quinolin-2(1H)-one]
11 | 90 | 93 | 94 | 89 | 94 | 93 |  |  |  |  |  |  | CCn1c(=O)cc(N2CCOCC2)c2cc(-n3c(-c4ccc(C)cc4)cn(C)c3=O)ccc21 [Example 273, 1-ethyl-6-(3-methyl-5-(4-methylphenyl)-2-oxo-2,3-dihydro-1H-imidazol-1-yl)-4-(morpholin-4-yl)quinolin-2(1H)-one]
12 | 89 | 91 | 94 | 89 | 93 | 83 |  |  |  |  |  |  | CCn1c(=O)cc(C2CC2)c2cc(-c3cccnc3-c3ccccc3)ccc21 [Example 278, 4-cyclopropyl-1-ethyl-6-(2-phenylpyridin-3-yl)quinolin-2(1H)-one]
13 | 88 | 91 | 93 | 89 | 93 | 91 |  |  |  |  |  |  | CCn1c(=O)cc(N2CCOCC2)c2cc(-c3cccnc3-c3ccccc3)ccc21 [Example 279, 1-ethyl-4-(morpholin-4-yl)-6-(2-phenylpyridin-3-yl)quinolin-2(1H)-one]
14 | 88 | 92 | 90 | 90 | 93 | 83 |  |  |  |  |  |  | CCn1c(=O)cc(C2CC2)c2cc(N3C(=O)C(C)C(=O)N3c3ccccc3)ccc21 (stereo not drawn) [Example 280, 1-(4-cyclopropyl-1-ethyl-2-oxo-1,2-dihydroquinolin-6-yl)-4-methyl-2-phenylpyrazolidine-3,5-dione]
15 | 89 | 91 | 92 | 88 | 94 | 87 |  |  |  |  |  |  | CCC1C(=O)N(c2ccccc2)N(c2ccc3c(c2)c(C2CC2)cc(=O)n3CC)C1=O (stereo not drawn) [Example 281, 1-(4-cyclopropyl-1-ethyl-2-oxo-1,2-dihydroquinolin-6-yl)-4-ethyl-2-phenylpyrazolidine-3,5-dione]
16 |  |  |  |  |  |  | 90 | 91 | 94 | 89 | 95 | 94 | CCn1c(=O)cc(C2CC2)c2cc(-n3c(=O)cc(C)n3-c3ccccc3)ccc21 [Example 282a, 4-Cyclopropyl-1-ethyl-6-(3-methyl-5-oxo-2-phenyl-2,5-dihydro-1H-pyrazol-1-y 1)quinolin-2(1H)-one]
